Measured values: US20240366571A1, “MODULATORS OF SK4 POTASSIUM CHANNEL AND USES THEREOF” (Ramot at Tel-Aviv University Ltd., priority 2022, published 2024)
“Also recorded” adds a separate entry of the source.

Target: T1, human SK4 (Homo sapiens, UniProt O15554)
T1 construct: expressed in transfected cells; host or cells: CHO cells
Assay: Whole-cell patch-clamp of WT SK4 K+ currents in transfected CHO cells
Format: cell-based
Conditions: 20 μM, whole-cell
Description: Constructs: For CHO cell transfection, the following were cloned: human SK1, rat SK2, human SK3, and rat calmodulin into the pcDNA3 vector, human SK4 into pEGFP-C1 vector, and PIP4,5-kinase into an IRES-dsRed plasmid. The mutations were introduced using the PCR-based QuikChange™ site-directed mutagenesis (Stratagene®) and were verified by full sequencing of the entire plasmid vector.
Cell Culture and Transfection: Chinese hamster ovary (CHO) cells were grown in Dulbecco's modified Eagle's medium supplemented with 2 millimolar (mM) glutamine, 10% fetal calf serum, and antibiotics. In brief, 40,000 cells seeded on poly-L-lysine-coated glass coverslips (13 millimeter (mm) in diameter) in a 24-multiwell plate were transfected with 0.5 microgram (μg) pEGFP-SK4/0.5 μg mutant SK4, 1.2 μg dsRed-PIP4,5-kinase or with 1 μg SK1/SK2/SK3 together with pIRES-CD8 (0.3 μg) as a marker for transfection. Transfection was performed using TransIT-LT1 Transfection Reagent (Mirus Bio) according to the manufacturer's protocol. For electrophysiology, transfected cells were visualized approximately 40 hours after transfection with a Zeiss Axiovert 35 inverted florescence microscope.
Whole-cell patch-clamp recording: Voltage-clamp recordings were performed using the whole-cell configuration of the patch-clamp technique. Signals were amplified using an […] patch-clamp amplifier (Molecular Devices), sampled at 5 kHz and filtered at 2.4 kHz via a four pole Bessel low pass filter. Data were acquired using pClamp™ 10.5 software in conjunction with an Axon™ DigiData® 1440A interface (Molecular Devices). The patch pipettes were pulled from borosilicate glass (Harvard Apparatus) with a resistance of 3-5 megaohms (MΩ). The intracellular pipette solution contained 130 mM KCl, 5 mM EGTA, 10 mM HEPES, pH 7.3 (adjusted with KOH), and CaCl2 calculated for a final concentration of 1 μM free-Ca^2+, by MAXCHELATOR (WEBMAXC STANDARD) software, with sucrose added to adjust osmolarity to 290 mosM. The external solution (310 mosM) contained 140 mM NaCl, 4 mM KCl, 1.8 mM CaCl2, 1.2 mM MgCl2, 11 mM glucose, and 5.5 mM HEPES adjusted with NaOH to pH 7.3. CHO cells were held at −90 millivolt (mV) and SK4 K^+ currents were activated using a voltage ramp protocol from −100 mV to +60 mV for 150 milliseconds. Electrophysiological data analysis was performed using the Clampfit program (pClamp™ 10.5; Molecular Devices).
Some of the compounds were tested by comparing trace of WT SK4 channel currents in the absence and presence of 20 μM of the tested compound.

| inhibition of WT SK4 currents | SMILES |
| --- | --- |
| about 25% | CCCCCCCn1c(=O)[nH]c2ccccc21 [BA6B, 1-heptyl-1,3-dihydro-2H-benzo[d]imidazol-2-one] |

Same assay, conditions: CHO, 20 μM, whole-cell

| inhibition at 20 µM [%] | SMILES |
| --- | --- |
| 25 | CCCCCCCn1c(=O)[nH]c2ccccc21 [BA6B, 1-heptyl-1,3-dihydro-2H-benzo[d]imidazol-2-one] |

Same assay, conditions: WT SK4 currents in absence and presence of 20 μM compound

| SMILES | SK4 K+ channel modulating activity |
| --- | --- |
| CCCCCCCn1c(=O)[nH]c2ccccc21 [BA6B, 1-heptyl-1,3-dihydro-2H-benzo[d]imidazol-2-one] | inhibited; also recorded: inhibition; also recorded: Inhibitor |
| Cc1ccc2[nH]c(=O)[nH]c2c1 [BA20, 5-methyl-1,3-dihydro-2H-benzo[d]imidazol-2-one] | Inactive |
| CCCCCn1c(=O)n(CCCCC)c2cc(C)ccc21 [BA23, 5-methyl-1,3-dipentyl-1,3-dihydro-2H-benzo[d]imidazol-2-one] | Inactive |
| CCCCCCn1c(=O)n(CCCCCC)c2cc(C)ccc21 [BA26, 1,3-dihexyl-5-methyl-1,3-dihydro-2H-benzo[d]imidazol-2-one] | Inactive |
| CCCCCCCn1c(=O)n(CCCCCCC)c2cc(C)ccc21 [BA29, 1,3-diheptyl-5-methyl-1,3-dihydro-2H-benzo[d]imidazol-2-one] | Inactive |
| Cc1cccc2[nH]c(=O)[nH]c12 [BA30, 4-methyl-1,3-dihydro-2H-benzo[d]imidazol-2-one] | Inactive |
| CCCCCn1c(=O)n(CCCCC)c2cc(Cl)c(Cl)cc21 [BA42, 5,6-dichloro-1,3-dipentyl-1,3-dihydro-2H-benzo[d]imidazol-2-one] | Inactive |
| CCCCCCn1c(=O)n(CCCCCC)c2cc(Cl)c(Cl)cc21 [BA44, 5,6-dichloro-1,3-dihexyl-1,3-dihydro-2H-benzo[d]imidazol-2-one] | Inactive |
| CCCCCCCn1c(=O)n(CCCCCCC)c2cc(Cl)c(Cl)cc21 [BA46, 5,6-dichloro-1,3-diheptyl-1,3-dihydro-2H-benzo[d]imidazol-2-one] | Inactive |
| Cc1cc2[nH]c(=O)[nH]c2cc1C [BA50, 5,6-dimethyl-1,3-dihydro-2H-benzo[d]imidazol-2-one] | Inactive |
| CCCCCCn1c(=O)n(CCCCCC)c2cc(C)c(C)cc21 [BA54, 1,3-dihexyl-5,6-dimethyl-1,3-dihydro-2H-benzo[d]imidazol-2-one] | Inactive |
| CCCCCCCn1c(=O)n(CCCCCCC)c2cc(C)c(C)cc21 [BA56, 1,3-diheptyl-5,6-dimethyl-1,3-dihydro-2H-benzo[d]imidazol-2-one] | Inactive |
| CCCCCn1c(=O)n(CCCCC)c2cc(F)ccc21 [BA63, 5-fluoro-1,3-dipentyl-1,3-dihydro-2H-benzo[d]imidazol-2-one] | Inactive |
| CCCCCCn1c(=O)n(CCCCCC)c2cc(F)ccc21 [BA66, 5-fluoro-1,3-dihexyl-1,3-dihydro-2H-benzo[d]imidazol-2-one] | Inactive |
| CCCCCCCn1c(=O)n(CCCCCCC)c2cc(F)ccc21 [BA69, 5-fluoro-1,3-diheptyl-1,3-dihydro-2H-benzo[d]imidazol-2-one] | Inactive |

Results, then the molecule that gave them:

| SK4 K+ channel modulating activity | SMILES |
| --- | --- |
| Inactive | Cn1c(=O)n(C)c2ccccc21 [BA2A, 1,3-dimethyl-1,3-dihydro-2H-benzo[d]imidazol-2-one] |
| Inactive | Cc1ccc2c(c1)n(C)c(=O)n2C [BA2OC1c, 1,3,5-trimethyl-1,3-dihydro-2H-benzo[d]imidazol-2-one] |
| Inactive | CCCn1c(=O)n(CCC)c2cc(C)ccc21 [BA2OC3c, 5-methyl-1,3-dipropyl-1,3-dihydro-2H-benzo[d]imidazol-2-one] |
| Inactive | CCCn1c(=O)n(CCC)c2ccccc21 [BA3A, 1,3-dipropyl-1,3-dihydro-2H-benzo[d]imidazol-2-one] |
| Inactive | CCCn1c(=O)[nH]c2ccccc21 [BA3B, 1-propyl-1,3-dihydro-2H-benzo[d]imidazol-2-one] |
| Inactive | CCCCCn1c(=O)n(CCCCC)c2ccccc21 [BA4A, 1,3-dipentyl-1,3-dihydro-2H-benzo[d]imidazol-2-one] |
| inhibition; also recorded: Inhibitor | CCCCCn1c(=O)[nH]c2ccccc21 [BA4B, 1-pentyl-1,3-dihydro-2H-benzo[d]imidazol-2-one] |
| Inactive | CCCCCCn1c(=O)n(CCCCCC)c2ccccc21 [BA5A, 1,3-dihexyl-1,3-dihydro-2H-benzo[d]imidazol-2-one] |
| inhibition; also recorded: Inhibitor | CCCCCCn1c(=O)[nH]c2ccccc21 [BA5B, 1-hexyl-1,3-dihydro-2H-benzo[d]imidazol-2-one] |
| Inactive | CCCCCCCn1c(=O)n(CCCCCCC)c2ccccc21 [BA6A, 1,3-diheptyl-1,3-dihydro-2H-benzo[d]imidazol-2-one] |
| Inactive | CCCCCCCCn1c(=O)n(CCCCCCCC)c2ccccc21 [BA7A, 1,3-dioctyl-1,3-dihydro-2H-benzo[d]imidazol-2-one] |
| Inactive | CCCCCCCCn1c(=O)[nH]c2ccccc21 [BA7B, 1-octyl-1,3-dihydro-2H-benzo[d]imidazol-2-one] |
| Inactive | CCCCCCCCCCn1c(=O)n(CCCCCCCCCC)c2ccccc21 [BA8A, 1,3-didecyl-1,3-dihydro-2H-benzo[d]imidazol-2-one] |
| Inactive | CCCCCCCCCCn1c(=O)[nH]c2ccccc21 [BA8B, 1-decyl-1,3-dihydro-2H-benzo[d]imidazol-2-one] |
| Inactive | CCCCCCCCCCCCn1c(=O)n(CCCCCCCCCCCC)c2ccccc21 [BA9A, 1,3-didodecyl-1,3-dihydro-2H-benzo[d]imidazol-2-one] |

Same assay, conditions: dose-dependent inhibition of WT SK4 channels; read-out: SK4 K+ channel modulating activity (IC50)

| IC50 [µM] | SMILES |
| --- | --- |
| 50 | CCCCCCCn1c(=O)[nH]c2ccccc21 [BA6B, 1-heptyl-1,3-dihydro-2H-benzo[d]imidazol-2-one] |
